We go through 22 molecules from patent US20240294531A1, “COVALENT HETEROCYCLES AND USES THEREOF” (Kumquat Biosciences Inc., priority 2022, published 2024).

One test concerns the target BTK C481S protein (Homo sapiens (Human), UniProt Q06187, C481S). Put plainly: BTK C481S HTRF displacement assay. In kind it is binding. To be noted: 1-hour incubation. In outline: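 N-terminal GST-tagged BTK C481S (2-659) incubated 1 hour at room temperature with compound (6 doses, four-fold from 5 μM), 50 nM kinase tracer 239 and anti-GST-Tb antibody. TR-FRET 665/620 ratio, background-subtracted; IC50 from constrained four-parameter fit. KI=IC50/(1+[Tracer]/Kd), tracer Kd 54 nM.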
For orientation: Time-resolved FRET reads energy transfer from a long-lived donor to a nearby acceptor.

Another test addresses BTK wildtype protein (Homo sapiens (Human), UniProt Q06187). As to the kind of experiment: BTK wildtype HTRF displacement assay. To be noted: 1-hour incubation; read-out: BTK (wt) IC50. The test is classed as binding. In outline:
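Full-length N-terminal GST-tagged BTK incubated 1 h at room temperature with compound (6 doses, four-fold dilutions from 5 μM top) plus kinase tracer 239 and anti-GST-Tb antibody. Tracer displacement read as TR-FRET 665/620 ratio, background-subtracted using no-protein control. IC50 from four-parameter fit constrained 0–100% inhibition.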

Chain of BTK wildtype protein (Q06187 2-659): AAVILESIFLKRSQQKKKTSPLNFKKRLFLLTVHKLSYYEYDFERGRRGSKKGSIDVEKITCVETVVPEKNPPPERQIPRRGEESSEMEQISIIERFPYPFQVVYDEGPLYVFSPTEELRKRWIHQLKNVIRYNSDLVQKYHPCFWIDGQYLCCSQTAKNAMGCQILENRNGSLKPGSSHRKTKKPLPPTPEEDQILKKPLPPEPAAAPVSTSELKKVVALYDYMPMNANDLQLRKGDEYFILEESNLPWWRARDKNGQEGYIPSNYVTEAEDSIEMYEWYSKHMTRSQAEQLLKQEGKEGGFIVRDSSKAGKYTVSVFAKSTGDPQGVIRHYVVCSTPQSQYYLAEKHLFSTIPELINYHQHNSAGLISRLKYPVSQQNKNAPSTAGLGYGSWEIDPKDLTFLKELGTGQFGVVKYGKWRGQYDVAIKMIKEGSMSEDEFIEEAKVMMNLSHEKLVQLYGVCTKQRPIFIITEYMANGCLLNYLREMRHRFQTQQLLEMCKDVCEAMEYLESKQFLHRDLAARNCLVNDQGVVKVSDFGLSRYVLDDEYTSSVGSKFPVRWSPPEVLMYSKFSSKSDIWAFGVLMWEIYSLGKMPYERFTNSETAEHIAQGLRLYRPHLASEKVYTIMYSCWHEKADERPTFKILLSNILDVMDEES
Chain of BTK C481S protein (Q06187 2-659 C481S): as the sequence (Q06187 2-659) above, with C480S counted along it

Take `COc1ccc(F)cc1C(=O)NCc1ccc(-c2nn(C(CC3CCCCC3)CN(C)C(=O)n3cncn3)c3ncnc(N)c23)cc1` (centres unmarked) [Compound 202, N-(2-(4-amino-3-(4-((5-fluoro-2-methoxybenzamido)methyl)phenyl)-1H-pyrazolo[3,4-d]pyrimidin-1-yl)-3-cyclohexylpropyl)-N-methyl-1H-1,2,4-triazole-1-carboxamide]: the IC50 at BTK C481S protein and at BTK wildtype protein was over 1000 nM in each case.
For the molecule `NC(=O)c1nn2c(c1-c1ccc(Oc3ccccc3)cc1)NCCC2C1CCCCN1C(=O)n1cncn1` (centres unmarked) [Compound 203, 7-(1-(1H-1,2,4-triazole-1-carbonyl)piperidin-2-yl)-3-(4-phenoxy-phenyl)-4,5,6,7-tetrahydro-pyrazolo[1,5-a]pyrimidine-2-carboxamide], the IC50 at BTK C481S protein and on BTK wildtype protein was over 1000 nM in each case.
In the case of `CC[C@@H](Cn1nc(-c2ccc(CNC(=O)c3cc(F)ccc3OC)cc2)c2c(N)ncnc21)N(C)C(=O)n1cncn1` [Compound 204, (S)-N-(1-(4-amino-3-(4-((5-fluoro-2-methoxybenzamido)methyl)phenyl)-1H-pyrazolo[3,4-d]pyrimidin-1-yl)butan-2-yl)-N-methyl-1H-1,2,4-triazole-1-carboxamide], the IC50 at BTK C481S protein and at BTK wildtype protein was at most 1000 nM throughout.
Turning to `CC(C1CCNc2c(C(N)=O)c(-c3ccc(Oc4ccccc4)cc3)nn21)N(C)C(=O)n1cncn1` (centres unmarked) [Compound 205, 7-(1-(N-methyl-1H-1,2,4-triazole-1-carboxamido)ethyl)-2-(4-phenoxy-phenyl)-4,5,6,7-tetrahydro-pyrazolo[1,5-a]pyrimidine-3-carboxamide], the half-inhibitory concentration (IC50) on BTK C481S protein and on BTK wildtype protein was at most 1000 nM each time.
For the molecule `COc1ccc(F)cc1C(=O)NCc1ccc(-c2nn(C(CC3CCCC3)CN(C)C(=O)n3cncn3)c3ncnc(N)c23)cc1` (centres unmarked) [Compound 206, N-(2-(4-amino-3-(4-((5-fluoro-2-methoxybenzamido)methyl)phenyl)-1H-pyrazolo[3,4-d]pyrimidin-1-yl)-3-cyclopentylpropyl)-N-methyl-1H-1,2,4-triazole-1-carboxamide], the IC50 at BTK C481S protein and at BTK wildtype protein was over 1000 nM throughout.
In the case of `NC(=O)c1c(-c2ccc(Oc3ccccc3)cc2)nn2c1NCCC2C1CCCN(C(=O)n2cncn2)C1` (centres unmarked) [Compound 207, 7-(1-(1H-1,2,4-triazole-1-carbonyl)piperidin-3-yl)-2-(4-phenoxy-phenyl)-4,5,6,7-tetrahydro-pyrazolo[1,5-a]pyrimidine-3-carboxamide], the IC50 at BTK C481S protein and on BTK wildtype protein was at most 1000 nM each time.
Turning to `COc1ccc(F)cc1C(=O)NCc1ccc(-c2nn(C[C@@H]3C[C@H](F)CN3C(=O)n3cncn3)c3ncnc(N)c23)cc1` [Compound 208, N-(4-(4-amino-1-(((2S,4S)-4-fluoro-1-(1H-1,2,4-triazole-1-carbonyl)pyrrolidin-2-yl)methyl)-1H-pyrazolo[3,4-d]pyrimidin-3-yl)benzyl)-5-fluoro-2-methoxybenzamide], the half-maximal inhibitory concentration (IC50) on BTK C481S protein and on BTK wildtype protein was at most 1000 nM each time.
In the case of `COc1ccc(F)cc1C(=O)NCc1ccc(-c2nn(CC3CCC3N(C)C(=O)n3cncn3)c3ncnc(N)c23)cc1` (centres unmarked) [Compound 209, N-(2-((4-amino-3-(4-((5-fluoro-2-methoxybenzamido)methyl)phenyl)-1H-pyrazolo[3,4-d]pyrimidin-1-yl)methyl)cyclobutyl)-N-methyl-1H-1,2,4-triazole-1-carboxamide], the IC50 on BTK C481S protein and at BTK wildtype protein was at most 1000 nM throughout.
For `COc1ccc(F)cc1C(=O)NCc1ccc(-c2nn(CC3COCCN3C(=O)n3cncn3)c3ncnc(N)c23)cc1` (centres unmarked) [Compound 210, N-(4-(1-((4-(1H-1,2,4-triazole-1-carbonyl)morpholin-3-yl)methyl)-4-amino-1H-pyrazolo[3,4-d]pyrimidin-3-yl)benzyl)-5-fluoro-2-methoxybenzamide], the IC50 on BTK C481S protein and on BTK wildtype protein was over 1000 nM throughout.
`COc1ccc(F)cc1C(=O)NCc1ccc(-c2nn(CC3CCCC3N(C)C(=O)n3cncn3)c3ncnc(N)c23)cc1` (centres unmarked) [Compound 211, N-(2-((4-amino-3-(4-((5-fluoro-2-methoxybenzamido)methyl)phenyl)-1H-pyrazolo[3,4-d]pyrimidin-1-yl)methyl)cyclopentyl)-N-methyl-1H-1,2,4-triazole-1-carboxamide]: the IC50 on BTK C481S protein and on BTK wildtype protein was at most 1000 nM each time.
As for `COc1ccc(F)cc1C(=O)NCc1ccc(-c2nn(C[C@H]3C[C@@H](C)CCN3C(=O)n3cnnc3)c(N)c2C(N)=O)cc1` [Compound 212, 5-amino-3-(4-((5-fluoro-2-methoxybenzamido)methyl)phenyl)-1-(((2R,4S)-4-methyl-1-(4H-1,2,4-triazole-4-carbonyl)piperidin-2-yl)methyl)-1H-pyrazole-4-carboxamide], the IC50 on BTK C481S protein and at BTK wildtype protein was at most 1000 nM throughout.
Consider `COc1ccc(F)cc1C(=O)NCc1ccc(-c2nn(C3(CCN(C)C(=O)n4cncn4)CCC3)c3ncnc(N)c23)cc1` [Compound 213, N-(2-(1-(4-amino-3-(4-((5-fluoro-2-methoxybenzamido)methyl)phenyl)-1H-pyrazolo[3,4-d]pyrimidin-1-yl)cyclobutyl)ethyl)-N-methyl-1H-1,2,4-triazole-1-carboxamide], for which the IC50 at BTK C481S protein and at BTK wildtype protein was at most 1000 nM each time.
As to `COCCC(Cn1nc(-c2ccc(CNC(=O)c3cc(F)ccc3OC)cc2)c2c(N)ncnc21)N(C)C(=O)n1cncn1` (centres unmarked) [Compound 214, N-(1-(4-amino-3-(4-((5-fluoro-2-methoxybenzamido)methyl)phenyl)-1H-pyrazolo[3,4-d]pyrimidin-1-yl)-4-methoxy-butan-2-yl)-N-methyl-1H-1,2,4-triazole-1-carboxamide], the IC50 at BTK C481S protein and at BTK wildtype protein was over 1000 nM throughout.
As for `COc1ccc(C)cc1C(=O)NCc1ccc(-c2nn(C3CCCC(N(C)C(=O)n4cncn4)C3)c3ncnc(N)c23)cc1` (centres unmarked) [Compound 215, N-(3-(4-amino-3-(4-((2-methoxy-5-methylbenzamido)methyl)phenyl)-1H-pyrazolo[3,4-d]pyrimidin-1-yl)cyclohexyl)-N-methyl-1H-1,2,4-triazole-1-carboxamide], the IC50 at BTK C481S protein and at BTK wildtype protein was at most 1000 nM throughout.
For the molecule `COc1ccc(C)cc1C(=O)NCc1ccc(-c2nn(CC3CCCCN3C(=O)n3cncn3)c3ncnc(N)c23)cc1` (centres unmarked) [Compound 217, N-(4-(1-((1-(1H-1,2,4-triazole-1-carbonyl)piperidin-2-yl)methyl)-4-amino-1H-pyrazolo[3,4-d]pyrimidin-3-yl)benzyl)-2-methoxy-5-methylbenzamide], the results for the IC50 at BTK C481S protein and at BTK wildtype protein were over 1000 nM and at most 1000 nM, respectively.
The like results for `COc1ccc(F)cc1C(=O)NCc1ccc(-c2nn(C(C)CN(C)C(=O)n3cncn3)c(N)c2C(N)=O)cc1` (centres unmarked) [Compound 218, N-(2-(5-amino-4-carbamoyl-3-(4-((5-fluoro-2-methoxybenzamido)methyl)phenyl)-1H-pyrazol-1-yl)propyl)-N-methyl-1H-1,2,4-triazole-1-carboxamide] were, in that order, at most 1000 nM and at most 1000 nM.
Turning to `COc1ccc(C)cc1C(=O)NCc1ccc(-c2nn(C3CCCC(N(C)C(=O)n4cnnn4)C3)c3ncnc(N)c23)cc1` (centres unmarked) [Compound 219, N-(3-(4-amino-3-(4-((2-methoxy-5-methylbenzamido)methyl)phenyl)-1H-pyrazolo[3,4-d]pyrimidin-1-yl)cyclohexyl)-N-methyl-1H-tetrazole-1-carboxamide], the IC50 at BTK C481S protein and at BTK wildtype protein was at most 1000 nM in each case.
For `NC(=O)c1c(-c2ccc(Oc3ccccc3)cc2)nn2c1NCCC2C1CN(C(=O)n2cncn2)C1` (centres unmarked) [Compound 220, 7-(1-(1H-1,2,4-triazole-1-carbonyl)azetidin-3-yl)-2-(4-phenoxyphenyl)-4,5,6,7-tetrahydropyrazolo[1,5-a] pyrimidine-3-carboxamide], the IC50 at BTK C481S protein and on BTK wildtype protein was at most 1000 nM in each case.
As for `COc1ccc(F)cc1C(=O)NCc1ccc(-c2nn(C[C@@H]3C[C@@H](F)CN3C(=O)n3cncn3)c3ncnc(N)c23)cc1` [Compound 221, N-(4-(4-amino-1-(((2S,4R)-4-fluoro-1-(1H-1,2,4-triazole-1-carbonyl)pyrrolidin-2-yl)methyl)-1H-pyrazolo[3,4-d]pyrimidin-3-yl)benzyl)-5-fluoro-2-methoxybenzamide], the figures for the IC50 on BTK C481S protein and at BTK wildtype protein were at most 1000 nM and over 1000 nM, respectively.
As for `COc1ccc(F)cc1C(=O)NCc1ccc(-c2nn([C@H]3CCCC[C@@H](N(C)C(=O)n4cncn4)C3)c(N)c2C(N)=O)cc1` [Compound 222, N-((1R,3S)-3-(5-amino-4-carbamoyl-3-(4-((5-fluoro-2-methoxybenzamido)methyl)phenyl)-1H-pyrazol-1-yl)cycloheptyl)-N-methyl-1H-1,2,4-triazole-1-carboxamide], the IC50 on BTK C481S protein and at BTK wildtype protein was at most 1000 nM each time.
In the case of `NC(=O)c1c(-c2ccc(Oc3ccccc3)cc2)nn2c1NCC[C@H]2[C@@H]1CCCCN1C(=O)n1cncn1` [Compound 223, (S)-7-((S)-1-(1H-1,2,4-triazole-1-carbonyl)piperidin-2-yl)-2-(4-phenoxyphenyl)-4,5,6,7-tetrahydropyrazolo[1,5-a] pyrimidine-3-carboxamide], the IC50 at BTK C481S protein and on BTK wildtype protein was over 1000 nM throughout.
Regarding `COc1ccc(F)cc1C(=O)NCc1ccc(-c2nn(C[C@@H]3C[C@@H](O)CN3C(=O)n3cncn3)c3ncnc(N)c23)cc1` [Compound 224, N-(4-(4-amino-1-(((2S,4R)-4-hydroxy-1-(1H-1,2,4-triazole-1-carbonyl)pyrrolidin-2-yl)methyl)-1H-pyrazolo[3,4-d]pyrimidin-3-yl)benzyl)-5-fluoro-2-methoxybenzamide], the IC50 at BTK C481S protein and on BTK wildtype protein was over 1000 nM in each case.

Usually IC50 stands for the concentration needed to halve the response being measured.
